“Also recorded” adds a separate entry of the source.
How the values were obtained:
[1] = test system: established diabetic hyperglycemic NOD mice; assay: Treatment of established diabetes in NOD mice (GABA alone or GABA plus Ex4); type: in vivo
Method: (§1) The techniques used for the in vivo and in vitro studies in this embodiment of the disclosure are also described. CD1 mice (Charles River Laboratories, St Constant, Canada), NOD mice and transgenic TCR NOD mice (Jackson Laboratory, USA) were housed under a controlled temperature and a 12-h light/12-h dark cycle in the St. Michael's Hospital Animal facility with free access to food (normal rodent chow) and water, except where noted. All procedures were conducted according to protocols and guidelines approved by the Canadian Council of Animal Care and the St. Michael's Hospital Animal Care committee. Mice were treated with GABA by daily intraperitoneal (i.p.) injection of 20·g GABA per mouse to reach ˜200 μM circulation concentration and PBS as control. The daily treatment is continuously conducted during 60-day experimental period. One wk after the GABA and PBS treatment, diabetes was induced in both groups by i.p.-injection of low-dose streptozotocin (STZ, Sigma Chemical Co., St. Louis, Mo. 40 mg/kg body weight) for 5 consecutive days. The development of hyperglycemia was monitored by measuring blood glucose from the tail vein every third day following STZ injections using an Ascensia ELITE® XL glucose meter. For some studies, overtly diabetic mice induced by STZ and without GABA treatment were divided into two groups: one group started receiving daily i.p. injection of 20·g GABA whereas other group received only PBS. The treatment was continued for 75 days. The handling of the NOD mice were similar to those CD1 mice except the STZ injection. The NOD mice have a susceptibility to spontaneous development of autoimmune T1D. The TCR transgenic 8.3-NOD mice have a markedly accelerated disease (J. Vergdaguer et al, 1997 J Exp Med. 186(10):1663-76).
Mice were housed in metabolic cages prior to initiation of GABA and PBS treatment and before termination of experiments. Food intake, water consumption and urine output were measured. To determine the fat distribution, three intra-abdominal fat pads retroperitoneal, mesenteric and epididymal were dissected and weighed. Subcutaneous fat was also analyzed.
All data are presented as mean±SEM. Statistic analysis was performed using Student's t-test or analysis of variance (ANOVA) with ‘n−1’ post hoc custom hypotheses tests, as appropriate, with the SAS software (Statistical Analysis Systems, Cary, N.C.) or the GraphPad Prism 3.0 program (GraphPad Software Inc., San Diego, Calif.). The incidence of diabetes was plotted using the Kaplan-Meier method and statistical comparisons made with the log-rank test. The significance of differences in insulitis scores was determined with the Chi-squared test. The differences between groups in the in vitro proliferation and cytokine release assays were determined by analysis of variance (ANOVA). Significance was assumed at p<0.05.

8.3-TCR NOD mice = assay: Prevention of diabetes in transgenic 8.3-TCR NOD mice; type: in vivo
Text: TCR NOD mice were used to investigate the potential role of GABA on the T-cell function. The 8.3-TCR NOD mouse is a severe T1D mouse model (Amrani A et al, 1999 Clin Invest. 103(8):1201-9) and developed diabetic hyperglycemia at about age of 11 wks (FIG. 8A). Autoimmune diabetes in NOD mice results from destruction of pancreatic b-cells by T lymphocytes. The CD8+ cytotoxic T lymphocytes is thought to be the initial beta-cell insult in diabetes in which the initiation is a Fas-dependent process (Amrani A et al, 1999 Clin Invest. 103(8):1201-9). The 8.3-TCR NOD mouse monoclonal T-cells bearing a T-cell receptor (8.3-TCR) that is representative of TCRs used by CD8+ cytotoxic T lymphocytes propagated from the earliest insulitic lesions of NOD mice.
GAD65 has long been considered as a major antigen initiating the pathogenesis in T1D. Given that the protective effects of GABA in the development of diabetes in the diabetic animal models, I proposed that as the rate limiting enzyme of GABA synthesis, GAD has important role in maintaining islet function. To determine if treatment of GABA has effects on the expression levels of GAD65, we performed pancreatic GAD staining in the TCR transgenic NOD mice.
as §1
Following dewaxing, […] as described previously (Wang Q, Brubaker P L 2002 Diabetologia 45:1263-1273), endogenous peroxidase activity was quenched by incubating sections in 0.3% H2O2 in water for 30 min and antigen retrieval was performed by heating slides in 10 mM sodium citrate buffer, pH 6.0, at ˜70° C. for 30 min. […]

## NCCCC(=O)O [GABA, gamma-aminobutyric acid]
[1]; GABA alone
  time for which lower blood glucose levels were maintained: about two
[1]; GABA vs PBS, after onset of hyperglycemia
  blood glucose levels: significantly reduced blood glucose levels
[1]; GABA-treated group
  sickness: no obvious sickness was developed
[1]; GABA-treated vs PBS
  diabetic symptoms (metabolic studies): significantly lessened
[1]; after onset of diabetic hyperglycemia, combination determined at two weeks after treatment
  reversal of diabetic hyperglycemia / remission: transient effect; also recorded: not able to achieve a full remission; also recorded: not effective in completely reversing diabetic hyperglycemia
[1]; diabetes when blood glucose ≧12 mM, GABA 20·g mouse, Ex4 1 nmol/kg, therapies PBS, GABA alone, GABA plus Ex4
  incidence of diabetes: significantly lower
[1]; established diabetic NOD mice
  feces: reduced
  food intake: reduced
  urine: reduced
  water consumption: reduced
8.3-TCR NOD mice; GABA-treated TCR-NOD mice
  alpha-cell mass: largely reserved
  islet mass / beta-cell mass: largely reserved
8.3-TCR NOD mice; TCR transgenic NOD mice
  pancreatic insulin and GAD65/67 staining: largely reserved the islet beta-cell mass and the intact association with GAD65; also recorded: reserves insulin and GAD65/67 content
8.3-TCR NOD mice; daily GABA vs saline-treated
  development of diabetic hyperglycemia: completely prevented the development of diabetic hyperglycemia; also recorded: completely prevents diabetic hyperglycemia
8.3-TCR NOD mice; vs PBS-treated
  lymphocytes (T-cell) infiltration in pancreatic islets: dramatically blocked; also recorded: obviously diminished

Source: patent US9463174B2, “Pharmaceutical composition for the treatment of type-1 diabetes” (priority 2008, dated 2016)
